Activity calls are given as the source filed them. No rule for the calls is given here.
The compounds below were run on HepG2 cytotoxicity (assay: human hepatoma cell viability loss – cytotoxicity control (AID 1159563)).
In the case of `O=S(=O)(c1ccccc1C(F)(F)F)N1CCN(Cc2ccc(-n3ccnc3)cc2)CC1`, the IC50 is reported as > 100 µM (inactive). With `O=c1[nH]c(C=Cc2cccc(OCCOc3ccccc3)c2)nc(O)c1[N+](=O)[O-]` the IC50 was > 100 µM (inactive). With `COc1cc(OC)cc(C(=O)N[C@@H](CC(C)C)C(=O)NC2(C#N)CC2)c1` the IC50 was > 100 µM (inactive). With `C=CCn1nc([N+](=O)[O-])nc1Oc1ccc(Cl)cc1Cl` the IC50 was > 100 µM (inactive). `N#Cc1c(Oc2cccc(Cl)c2)cccc1[N+](=O)[O-]` gave an IC50 of 25 µM. `Cc1cc(-c2cccc3ccccc23)nc2nc(N)nc(N)c12` showed an IC50 of 50 µM. In the case of `CC(C)C[C@H](NC(=O)c1csc(-c2cccs2)n1)C(=O)NC1(C#N)CC1`, the IC50 is reported as > 100 µM (inactive). In the case of `COc1ccc(-c2cnc(NC(=O)c3cc(-c4ccccn4)n[nH]3)n2C)cc1`, the IC50 is reported as > 100 µM (inactive). Work on `Nc1nc(-c2ccccn2)nc(-n2nc(-c3ccccc3)cc2N)n1` yielded an IC50 of 10 µM. In the case of `COc1cc(C2SCC(=O)Nc3c2c(C)nn3-c2nc3ccccc3s2)cc(OC)c1O` (stereo unspecified), the IC50 is reported as > 100 µM (inactive). `CS(=O)(=O)c1ccc(Nc2nccc(Nc3n[nH]c4ccc(F)cc34)n2)c(F)c1` showed an IC50 of 79 µM. In the case of `O=C(CSc1ccc(-c2ccccn2)nn1)Nc1ccc(Cl)cc1`, the IC50 is reported as > 100 µM (inactive). For `CCCNC(=O)Nc1cccc(-c2nc3ncccc3o2)c1`, the IC50 was > 100 µM (inactive). `CCOc1ccc(NC(=O)C=Cc2ccc(CC)o2)cc1` was tested, and the IC50 was 79 µM. `O=C(c1cc2cc(Cl)ccc2[nH]1)N1CCCCC1c1cccnc1` (stereo unspecified) was tested, and the IC50 was 40 µM. `O=C(NCCc1cccnc1)c1ccc(-c2ccccc2F)o1` was tested, and the IC50 was > 100 µM (inactive). Work on `CC(=O)NCCNc1cc(-c2ccnc(Nc3cccc(Cl)c3)n2)ccn1` yielded an IC50 of 25 µM. Compound `O=C(Nc1nc(-c2ccc(F)cc2)cs1)c1ccc([N+](=O)[O-])s1` has an IC50 of 13 µM. With `CC(C)(C)CC(=O)NCc1noc(COc2ccccc2)n1` the IC50 was > 100 µM (inactive). For `CN(C(=O)Nc1ccc2c(c1)CCN(C1CCC1)CC2)c1ccc(C#N)cc1`, the IC50 was > 100 µM (inactive). `Cc1ccc(Nc2nc(C3CCCN3Cc3ccn[nH]3)cs2)nc1` (stereo unspecified) showed an IC50 of 32 µM. For `COc1ccc(-c2csc(NC(=O)c3ccc([N+](=O)[O-])s3)n2)cc1OC`, the IC50 was 10 µM. Work on `Cc1ccc(S(C)(=O)=O)cc1Nc1nccc(-c2sc(N)nc2-c2ccccc2)n1` yielded an IC50 of 32 µM. `COc1cccc(NS(=O)(=O)c2ccc3[nH]cc(C(=O)NCCC(C)C)c(=O)c3c2)c1` was tested, and the IC50 was 32 µM. For `Nc1cc(-c2ccc3ncnc(N4CCOCC4)c3c2)cnc1N`, the IC50 was > 100 µM (inactive). For `NC(=O)c1cc(NC(=O)c2ccccc2COc2ccccc2)ccc1Cl`, the IC50 was > 100 µM (inactive). In the case of `C=CCOCC1Cn2nc([N+](=O)[O-])nc2O1` (stereo unspecified), the IC50 is reported as > 100 µM (inactive). For `Cc1ccc(C)c(-n2nnnc2Sc2nc([N+](=O)[O-])nn2C)c1`, the IC50 was > 100 µM (inactive). `COc1ccc(CNc2nsc3ccccc23)cc1OC` was tested, and the IC50 was 50 µM. With `COc1ccc(OC)c2c(=O)c(Cc3ccccc3)c(C)[nH]c12` the IC50 was > 100 µM (inactive). Compound `CN(C)Cc1ccc(N2CCC(NS(=O)(=O)c3ccc(Cl)cc3)CC2)cc1` has an IC50 of 50 µM. With `CC(=O)Nc1ccc(Nc2nccc(-c3cnn4ncccc34)n2)cc1C(F)(F)F` the IC50 was > 100 µM (inactive). In the case of `CS(=O)(=O)NC1CCC(Nc2ncc(Br)c(Nc3ccccc3C(N)=O)n2)CC1` (stereo unspecified), the IC50 is reported as > 100 µM (inactive). `CC(C)(C)Nc1nc(-c2ccccn2)nc2ccccc12` gave an IC50 of 20 µM. In the case of `COc1ccc(C(=O)Nc2ccc(NC(=O)CO)cc2)cc1`, the IC50 is reported as > 100 µM (inactive). With `Cn1nc([N+](=O)[O-])nc1Oc1ccc(C(=O)c2ccccc2)cc1` the IC50 was > 100 µM (inactive). In the case of `O=C(c1ccccc1)N1CCC(C(=O)N2CCC(Oc3ccccc3Cl)CC2)CC1`, the IC50 is reported as > 100 µM (inactive). For `N#Cc1ccc(Br)cc1[N+](=O)[O-]`, the IC50 was 20 µM. With `O=C(Nc1ccc(C(=O)N2CCCC2c2ccc3c(c2)OCCCO3)cc1)c1ccco1` (stereo unspecified) the IC50 was > 100 µM (inactive). `COc1ccc(OC)c(S(=O)(=O)N(Cc2c(F)cccc2F)[C@@H]2CCN(C#N)C2)c1` showed an IC50 of 79 µM. In the case of `COc1ccc(C2CC(c3ccc(NS(C)(=O)=O)cc3)=NN2C(=O)c2cccs2)cc1OC` (stereo unspecified), the IC50 is reported as > 100 µM (inactive).
